Patent US20210138025A1, “CATIONIC PEPTIDES WITH IMMUNOMODULATORY AND/OR ANTI-BIOFILM ACTIVITIES” (priority 2018, published 2021)
Values after ≈ are worked out from the molar mass of the structure shown. Where two headings read alike, the source gives them in different places. No end group written: not given here.

Tests used:
[1] = tested on: planktonic methicillin resistant S. aureus; test: microbe, parasite or virus in culture; format: cell-based, Staphylococcus aureus; conditions: Staphylococcus aureus
PBMCs = test: Cytotoxicity towards PBMCs, lactate dehydrogenase (LDH) release assay (Tables 6, 7); conditions: SPOT synthesized peptide ~25 μM, PBMCs from 3 human donors; Table 6
IL-1β = test: Suppression of LPS-induced IL-1β production in human PBMCs, ELISA (Tables 6, 7; FIGS. 6-9, 13); conditions: SPOT synthesized control peptides, determined as in Table 6; Table 7
S. aureus (MRSA SAP0017) = format: cell-based, Staphylococcus aureus; conditions: SPOT synthesized control peptides, determined as in Table 5; Table 7
Procedure: Methods of assessment of anti-biofilm activity: MRSA S. aureus strain SAP0017 biofilm formation was initially analyzed using a static abiotic solid surface assay as described elsewhere (de la Fuente-Nunez et al., 2012) and shown graphically in FIG. 2. Dilutions (1/100) of overnight cultures were incubated in BM2 biofilm-adjusted medium [62 mM potassium phosphate buffer (pH 7), 7 mM (NH4)2SO4, 2 mM MgSO4, 10 μM FeSO4, 0.4% (wt/vol) glucose, 0.5% (wt/vol) Casamino Acids], or a nutrient rich medium such as Tryptic soy broth supplemented with 1% glucose, in polypropylene microtiter plates (Falcon, United States) in the absence (control) or presence of peptide. Peptide was added at time zero (prior to adding the diluted, overnight cultures) in varying concentrations, and the amount biofilm formation was recorded after 22-46 h incubation for most bacteria. To quantify biofilm growth, planktonic cells were removed and biofilm cells adhering to the side of the wells were stained with crystal violet, and absorbance at 595 nm was measured using a microtiter plate reader (Bio-Tek Instruments Inc., United States).

MCP-1 = MCP-1 chemokine induction in human PBMCs, ELISA (Tables 6, 7; FIGS. 6-9, 13); format: cell-based; conditions: SPOT synthesized control peptides, determined as in Table 6; Table 7
Procedure: Venous blood (20 ml) from healthy volunteers was collected in Vacutainer® collection tubes containing sodium heparin as an anticoagulant (Becton Dickinson, Mississauga, ON) in accordance with UBC ethical approval and guidelines. Blood was diluted 1:1 with complete RPMI 1640 medium and separated by centrifugation over a Ficoll-Paque® Plus (Amersham Biosciences, Piscataway, N.J., USA) density gradient. White blood cells were isolated from the buffy coat, washed twice in PBS and then resuspended in RPMI 1640 complete medium (containing 10% fetal bovine serum), and the number of peripheral blood mononuclear cells (PBMC) was determined by Trypan blue exclusion. PBMCs (5×10^5) were seeded into 12-well tissue culture dishes (Falcon; Becton Dickinson) at 0.75-1×10^6 cells/ml at 37° C. in 5% CO2. The above conditions were chosen to mimic conditions for circulating blood monocytes entering tissues at the site of infection via extravasation.
Following incubation of the cells under various treatment regimens, the tissue culture supernatants were centrifuged at 1000×g for 5 min, then at 10,000×g for 2 min to obtain cell-free samples. Supernatants were aliquoted and then stored at −20° C. prior to assay for various chemokines by capture ELISA (eBioscience and BioSource International Inc., CA, USA respectively)

| Compound | MIC ([1]; read-out: MIC (μM) MHB) | MIC ([1]; read-out: MIC (μM) TSB with 1% Glucose) | % Toxicity (LDH Release) (PBMCs) | Fold Change in IL1-β relative to untreated LPS-stimulated cells (IL-1β) | % Biofilm Inhibition (S. aureus (MRSA SAP0017)) | MCPI production in PBMC (MCP-1) |
| --- | --- | --- | --- | --- | --- | --- |
| CN[C@H](CC(C)C)C(=O)N[C@H]1C(=O)N[C@@H](CC(N)=O)C(=O)N[C@H]2C(=O)N[C@H]3C(=O)N[C@H](C(=O)N[C@H](C(=O)O)c4cc(O)cc(O)c4-c4cc3ccc4O)[C@H](O)c3ccc(c(Cl)c3)Oc3cc2cc(c3O[C@@H]2O[C@H](CO)[C@@H](O)[C@H](O)[C@H]2O[C@H]2C[C@](C)(N)[C@H](O)[C@H](C)O2)Oc2ccc(cc2Cl)[C@H]1O [Vancomycin] | 0.34 µM (≈ 0.493 µg/mL) | 0.68 µM (≈ 0.986 µg/mL) |  |  |  |  |
| ALAIKVWIKILQ-NH2 [Imax-7, ALAIKVWIKILQ] |  |  | −1.1% |  |  |  |
| C10 (QLRVAWKRAWWA) [Peptide C10] |  |  |  | 1.34 | 87% | 1313 pg/mL |
| C11 (KAVKKGRRAIVV) [Peptide C11] |  |  |  | 1.12 | 106% | 197 pg/mL |
| C12 (VIRAKAVWGWVK) [Peptide C12] |  |  |  | 1.01 | 104% | 498 pg/mL |
| C13 (VARAVQKRWRKK) [Peptide C13] |  |  |  | 1.55 | 105% | 221 pg/mL |
| C14 (VKAKRWKWAQLA) [Peptide C14] |  |  |  | 1.2 | 104% | 209 pg/mL |
| C15 (KRVQAKAWRLQR) [Peptide C15] |  |  |  | 0.94 | 100% | 297 pg/mL |
| C16 (KKIRQWGKAAAW) [Peptide C16] |  |  |  | 0.99 | 100% | 571 pg/mL |
| C17 (QQLRWKRVAKAI) [Peptide C17] |  |  |  | 1.05 | 100% | 1677 pg/mL |
| C18 (IQIQLVKRWAVI) [Peptide C18] |  |  |  | 0.92 | 100% | 1768 pg/mL |
| C19 (RLIQWGWKIWAV) [Peptide C19] |  |  |  | 0.94 | 99% | 738 pg/mL |
| C20 (KLLGILKQAIVV) [Peptide C20] |  |  |  | 0.78 | 100% | 106 pg/mL |
| C21 (VLLRVGARIVVG) [Peptide C21] |  |  |  | 0.83 | 99% | 345 pg/mL |
| C22 (LLIAGKWWKLAI) [Peptide C22] |  |  |  | 0.83 | 103% | 153 pg/mL |
| GLIIKIIKKRLW-NH2 [IBFmax-15, GLIIKIIKKRLW] |  |  | 25.1% |  |  |  |
| GRVLKIVWRKGR-NH2 [Mmax-3, GRVLKIVWRKGR] |  |  | 4.2% |  |  |  |
| IKWVLRKIVQII-NH2 [IBFmax-17, IKWVLRKIVQII] |  |  | 3.6% |  |  |  |
| IQLKLIWVKRKW-NH2 [MILBFmax5, IQLKLIWVKRKW] |  |  | −1.3% |  |  |  |
| IRILVLRKAIIV-NH2 [MILBFmax-9, IRILVLRKAIIV] |  |  | 23.9% |  |  |  |
| IVKKVKLIWGVK-NH2 [MILBFmax-13, IVKKVKLIWGVK] |  |  | −3.2% |  |  |  |
| IVKWIAQWKLVG-NH2 [Imax- 10] |  |  | −1% |  |  |  |
